In ChEMBL document CHEMBL1152385, “Cyanoguanidine-based lactam derivatives as a novel class of orally bioavailable factor Xa inhibitors” (Bioorg Med Chem Lett, 2009):

Assays:
Coagulation factor X = Coagulation factor X (Homo sapiens, UniProt P00742); test: Inhibition of human factor 10a-mediated cleavage of synthetic substrate S-2222
Cytochrome P450 2C19 [1] = target: T1, Cytochrome P450 2C19 (Homo sapiens, UniProt P33261); test: Inhibition of CYP2C19; type: ADME
Cytochrome P450 3A4 [2] = target: T2, Cytochrome P450 3A4 (Homo sapiens, UniProt P08684); test: Inhibition of CYP3A4 in human TC5 cells; type: ADME, cell-based
Cytochrome P450 2C8 = Cytochrome P450 2C8 (Homo sapiens, UniProt P10632); test: Inhibition of CYP2C8; type: ADME
[3] = Volume of distribution at steady state in rat at 7 mg/kg, iv; type: ADME, organism-based; design: dose 7 mg/kg, route intravenous; details: in vivo, read-out: Vdss
Rattus norvegicus = test: Total clearance in rat at 7 mg/kg, iv; type: ADME, organism-based; design: dose 7 mg/kg, route intravenous; details: in vivo
[4] = Half life in dog at 8.3 mg/kg, iv; type: ADME, organism-based, Canis lupus familiaris; design: dose 8.3 mg/kg, route intravenous; details: in vivo
[5] = Oral Bioavailability in rat at 10 mg/kg; type: ADME, organism-based; details: in vivo
Cytochrome P450 2C19 [6] = target: T1, Cytochrome P450 2C19; test: Inhibition of CYP2C19 in human TC5 cells; type: ADME, cell-based
Cytochrome P450 1A2 = Cytochrome P450 1A2 (Homo sapiens, UniProt P05177); test: Inhibition of CYP1A2; type: ADME
[7] = Mean residence time in monkey at 10 mg/kg, iv; type: ADME, organism-based, Macaca mulatta; design: dose 10 mg/kg, route intravenous; details: rhesus monkey, in vivo
[8] = Volume of distribution at steady state in dog at 8.3 mg/kg, iv; type: ADME, organism-based, Canis lupus familiaris; design: dose 8.3 mg/kg, route intravenous; details: in vivo, read-out: Vdss
[9] = Oral bioavailability in dog at 7 mg/kg; type: ADME, organism-based, Canis lupus familiaris; details: in vivo
[10] = target: T3, Voltage-gated L-type calcium channel (Rattus norvegicus, UniProt P22002+Q02485+P27732); test: Inhibition of rat DHP binding site of L-type calcium channel at 10 uM
Cytochrome P450 2D6 [11] = target: T4, Cytochrome P450 2D6 (Homo sapiens, UniProt P10635); test: Inhibition of CYP2D6 in human TC5 cells; type: ADME, cell-based
[12] = target: Amine oxidase [flavin-containing] A (Rattus norvegicus, UniProt P21396); test: Inhibition of rat MAO-A at 10 uM
[13] = target: T3, Voltage-gated L-type calcium channel; test: Inhibition of rat verapamil binding site of L-type calcium channel at 10 uM
Canis familiaris = test: Total clearance in dog at 8.3 mg/kg, iv; type: ADME, organism-based, Canis lupus familiaris; design: dose 8.3 mg/kg, route intravenous; details: in vivo
Cytochrome P450 3A4 [14] = target: T2, Cytochrome P450 3A4; test: Inhibition of CYP3A4 using BFC as substrate; type: ADME
[15] = Half life in rat at 7 mg/kg, iv; type: ADME, organism-based; design: dose 7 mg/kg, route intravenous; details: in vivo
Cytochrome P450 3A4 [16] = target: T2, Cytochrome P450 3A4; test: Inhibition of CYP3A4 using BZR as substrate; type: ADME
Cytochrome P450 2C9 [17] = target: T5, Cytochrome P450 2C9 (Homo sapiens, UniProt P11712); test: Inhibition of CYP2C9; type: ADME
Cytochrome P450 2D6 [18] = target: T4, Cytochrome P450 2D6; test: Inhibition of CYP2D6; type: ADME
[19] = target: Urokinase-type plasminogen activator (Homo sapiens, UniProt P00749); test: Inhibition of u-PA
[20] = target: Nuclear receptor subfamily 1 group I member 2 (Homo sapiens, UniProt O75469); test: Activity at PXR
[21] = target: Tissue-type plasminogen activator (Homo sapiens, UniProt P00750); test: Inhibition of t-PA
Prothrombin = Prothrombin (Homo sapiens, UniProt P00734); test: Inhibition of thrombin
Cytochrome P450 2C9 [22] = target: T5, Cytochrome P450 2C9; test: Inhibition of CYP2C9 in human TC5 cells; type: ADME, cell-based
[23] = Volume of distribution at steady state in monkey at 10 mg/kg, iv; type: ADME, organism-based, Macaca mulatta; design: dose 10 mg/kg, route intravenous; details: rhesus monkey, in vivo, read-out: Vdss
[24] = target: Amine oxidase [flavin-containing] B (Rattus norvegicus, UniProt P19643); test: Inhibition of rat MAO-B at 10 uM
Cytochrome P450 2B6 = Cytochrome P450 2B6 (Homo sapiens, UniProt P20813); test: Inhibition of CYP2B6; type: ADME
Rhesus monkey = test: Total clearance in monkey at 10 mg/kg, iv; type: ADME, organism-based, Macaca mulatta; design: dose 10 mg/kg, route intravenous; details: in vivo
[25] = Bioavailability in monkey at 10 mg/kg, po; type: ADME, organism-based, Macaca mulatta; details: rhesus monkey, in vivo
[26] = Mean residence time in dog at 8.3 mg/kg, iv; type: ADME, organism-based, Canis lupus familiaris; design: dose 8.3 mg/kg, route intravenous; details: in vivo
[27] = Mean residence time in rat at 7 mg/kg, iv; type: ADME, organism-based; design: dose 7 mg/kg, route intravenous; details: in vivo
[28] = target: Vitamin K-dependent protein C (Homo sapiens, UniProt P04070); test: Inhibition of activated protein C
[29] = Half life in monkey at 10 mg/kg, iv; type: ADME, organism-based, Macaca mulatta; design: dose 10 mg/kg, route intravenous; details: rhesus monkey, in vivo
Plasminogen = Plasminogen (Homo sapiens, UniProt P00747); test: Inhibition of plasmin

Chain of Coagulation factor X (P00742 41-179 limits assumed): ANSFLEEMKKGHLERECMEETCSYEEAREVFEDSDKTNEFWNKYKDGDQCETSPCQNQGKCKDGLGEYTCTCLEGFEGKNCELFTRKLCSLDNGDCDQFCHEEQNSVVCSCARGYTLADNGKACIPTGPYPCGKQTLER
Chain of Coagulation factor X (P00742 235-488 limits assumed): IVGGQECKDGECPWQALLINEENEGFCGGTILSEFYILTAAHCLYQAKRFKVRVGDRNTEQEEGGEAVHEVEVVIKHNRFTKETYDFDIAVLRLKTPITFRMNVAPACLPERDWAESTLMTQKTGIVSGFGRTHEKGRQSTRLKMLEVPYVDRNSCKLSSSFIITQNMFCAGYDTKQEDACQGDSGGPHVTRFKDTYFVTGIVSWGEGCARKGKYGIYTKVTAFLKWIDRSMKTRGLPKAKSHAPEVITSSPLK
T2 sequence (P08684 whole entry): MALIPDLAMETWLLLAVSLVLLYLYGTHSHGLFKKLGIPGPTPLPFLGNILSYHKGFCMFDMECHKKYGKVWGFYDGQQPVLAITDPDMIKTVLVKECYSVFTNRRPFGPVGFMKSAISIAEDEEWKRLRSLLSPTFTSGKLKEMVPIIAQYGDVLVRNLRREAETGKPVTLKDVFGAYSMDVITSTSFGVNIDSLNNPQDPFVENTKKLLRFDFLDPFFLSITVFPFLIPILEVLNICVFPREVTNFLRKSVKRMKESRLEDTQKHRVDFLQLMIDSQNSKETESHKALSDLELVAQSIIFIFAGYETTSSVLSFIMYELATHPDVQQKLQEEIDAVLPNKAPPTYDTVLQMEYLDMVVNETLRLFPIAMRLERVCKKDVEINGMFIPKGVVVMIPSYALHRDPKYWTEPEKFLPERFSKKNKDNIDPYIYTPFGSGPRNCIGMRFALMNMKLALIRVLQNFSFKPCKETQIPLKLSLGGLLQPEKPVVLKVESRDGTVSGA
T4 sequence (P10635 whole entry): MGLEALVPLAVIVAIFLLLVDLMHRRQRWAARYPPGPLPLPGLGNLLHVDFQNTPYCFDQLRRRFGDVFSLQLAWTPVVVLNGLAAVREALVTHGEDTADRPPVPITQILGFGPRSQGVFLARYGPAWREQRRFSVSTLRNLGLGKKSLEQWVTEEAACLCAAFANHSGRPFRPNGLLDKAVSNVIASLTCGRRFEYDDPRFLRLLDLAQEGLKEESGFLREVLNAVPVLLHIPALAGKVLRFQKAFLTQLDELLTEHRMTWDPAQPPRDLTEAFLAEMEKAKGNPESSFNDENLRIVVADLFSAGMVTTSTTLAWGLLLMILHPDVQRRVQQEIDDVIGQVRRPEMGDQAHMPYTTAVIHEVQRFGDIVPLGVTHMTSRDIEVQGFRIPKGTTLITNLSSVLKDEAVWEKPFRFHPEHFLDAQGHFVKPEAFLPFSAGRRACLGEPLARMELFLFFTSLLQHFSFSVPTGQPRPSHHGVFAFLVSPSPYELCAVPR
T1 sequence (P33261 whole entry): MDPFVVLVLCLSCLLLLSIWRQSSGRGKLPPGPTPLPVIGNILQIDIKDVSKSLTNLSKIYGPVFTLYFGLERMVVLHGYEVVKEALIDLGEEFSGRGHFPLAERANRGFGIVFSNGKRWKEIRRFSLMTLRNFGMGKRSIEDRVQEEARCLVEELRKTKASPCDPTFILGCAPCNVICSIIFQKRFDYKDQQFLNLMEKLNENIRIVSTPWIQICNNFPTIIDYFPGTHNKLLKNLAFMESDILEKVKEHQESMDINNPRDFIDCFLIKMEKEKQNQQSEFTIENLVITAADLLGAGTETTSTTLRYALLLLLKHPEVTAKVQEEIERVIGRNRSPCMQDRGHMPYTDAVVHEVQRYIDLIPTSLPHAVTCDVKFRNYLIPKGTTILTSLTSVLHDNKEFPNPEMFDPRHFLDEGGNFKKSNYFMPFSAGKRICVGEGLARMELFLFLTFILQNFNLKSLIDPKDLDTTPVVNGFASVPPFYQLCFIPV
T5 sequence (P11712 whole entry): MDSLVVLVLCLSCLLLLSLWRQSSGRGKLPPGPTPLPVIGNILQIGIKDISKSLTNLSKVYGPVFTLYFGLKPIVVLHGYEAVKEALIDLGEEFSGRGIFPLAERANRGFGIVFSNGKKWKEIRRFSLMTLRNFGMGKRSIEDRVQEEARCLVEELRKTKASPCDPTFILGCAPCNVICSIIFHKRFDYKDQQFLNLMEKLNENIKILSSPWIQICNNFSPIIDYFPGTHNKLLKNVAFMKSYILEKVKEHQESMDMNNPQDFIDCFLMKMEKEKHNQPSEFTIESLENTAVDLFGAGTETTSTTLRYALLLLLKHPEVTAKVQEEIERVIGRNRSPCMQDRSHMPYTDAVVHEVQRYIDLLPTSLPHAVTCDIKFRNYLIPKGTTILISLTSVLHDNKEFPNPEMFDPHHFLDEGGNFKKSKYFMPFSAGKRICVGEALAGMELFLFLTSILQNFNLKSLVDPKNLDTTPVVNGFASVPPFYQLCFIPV
Chain of Cytochrome P450 1A2 (P05177 whole entry): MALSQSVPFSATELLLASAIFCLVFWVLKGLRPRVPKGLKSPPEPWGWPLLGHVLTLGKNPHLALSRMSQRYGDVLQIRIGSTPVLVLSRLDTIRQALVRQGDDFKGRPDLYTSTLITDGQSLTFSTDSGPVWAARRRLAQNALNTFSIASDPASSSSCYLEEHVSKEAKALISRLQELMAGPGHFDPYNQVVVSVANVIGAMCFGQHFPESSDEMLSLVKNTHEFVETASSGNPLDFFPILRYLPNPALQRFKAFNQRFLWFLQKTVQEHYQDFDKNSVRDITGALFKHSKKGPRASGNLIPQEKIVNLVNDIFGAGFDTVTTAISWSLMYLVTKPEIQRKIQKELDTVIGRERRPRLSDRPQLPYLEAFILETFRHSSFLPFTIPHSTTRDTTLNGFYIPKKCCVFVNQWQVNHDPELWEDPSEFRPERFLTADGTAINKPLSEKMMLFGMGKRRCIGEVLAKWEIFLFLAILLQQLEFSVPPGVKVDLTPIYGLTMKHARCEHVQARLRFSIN
Chain of Vitamin K-dependent protein C (P04070 43-197 limits assumed): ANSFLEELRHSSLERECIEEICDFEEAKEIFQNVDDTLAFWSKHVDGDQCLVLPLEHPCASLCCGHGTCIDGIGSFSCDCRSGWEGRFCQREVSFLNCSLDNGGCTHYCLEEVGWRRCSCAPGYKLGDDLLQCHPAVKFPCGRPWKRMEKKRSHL
Chain of Vitamin K-dependent protein C (P04070 212-461 limits assumed): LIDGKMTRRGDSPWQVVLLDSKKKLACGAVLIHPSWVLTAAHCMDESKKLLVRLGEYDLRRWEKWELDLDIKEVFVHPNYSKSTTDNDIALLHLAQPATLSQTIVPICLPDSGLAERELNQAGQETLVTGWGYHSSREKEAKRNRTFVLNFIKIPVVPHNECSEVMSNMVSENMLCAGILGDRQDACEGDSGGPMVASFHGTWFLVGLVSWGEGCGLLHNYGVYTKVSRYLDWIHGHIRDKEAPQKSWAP
Chain of Cytochrome P450 2C8 (P10632 whole entry): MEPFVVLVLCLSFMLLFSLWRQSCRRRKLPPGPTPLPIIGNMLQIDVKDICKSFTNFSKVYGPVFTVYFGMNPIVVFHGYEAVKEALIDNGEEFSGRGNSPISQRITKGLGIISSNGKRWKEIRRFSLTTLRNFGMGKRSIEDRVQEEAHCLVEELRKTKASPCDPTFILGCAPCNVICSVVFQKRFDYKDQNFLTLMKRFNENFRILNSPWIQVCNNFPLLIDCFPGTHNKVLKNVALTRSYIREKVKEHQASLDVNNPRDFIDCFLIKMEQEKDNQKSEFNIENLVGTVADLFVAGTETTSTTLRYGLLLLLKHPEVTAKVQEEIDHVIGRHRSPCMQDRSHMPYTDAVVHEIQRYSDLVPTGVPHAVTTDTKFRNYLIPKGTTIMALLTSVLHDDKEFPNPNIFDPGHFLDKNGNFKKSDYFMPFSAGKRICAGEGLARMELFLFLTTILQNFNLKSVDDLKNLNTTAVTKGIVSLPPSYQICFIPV
Chain of Amine oxidase [flavin-containing] B (P19643 whole entry): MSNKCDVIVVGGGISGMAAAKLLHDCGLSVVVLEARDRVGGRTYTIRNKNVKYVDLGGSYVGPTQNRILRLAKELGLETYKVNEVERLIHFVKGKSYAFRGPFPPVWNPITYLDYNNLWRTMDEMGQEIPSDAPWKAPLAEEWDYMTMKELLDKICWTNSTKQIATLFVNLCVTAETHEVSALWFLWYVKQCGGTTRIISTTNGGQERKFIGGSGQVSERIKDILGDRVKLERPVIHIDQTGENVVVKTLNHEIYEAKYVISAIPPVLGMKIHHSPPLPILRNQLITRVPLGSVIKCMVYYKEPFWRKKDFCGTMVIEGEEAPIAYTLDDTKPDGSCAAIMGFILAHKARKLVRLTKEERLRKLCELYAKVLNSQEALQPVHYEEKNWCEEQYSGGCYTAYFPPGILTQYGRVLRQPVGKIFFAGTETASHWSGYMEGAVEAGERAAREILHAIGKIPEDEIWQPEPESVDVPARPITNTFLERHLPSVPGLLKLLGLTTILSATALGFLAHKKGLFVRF
Chain of Nuclear receptor subfamily 1 group I member 2 (O75469 whole entry): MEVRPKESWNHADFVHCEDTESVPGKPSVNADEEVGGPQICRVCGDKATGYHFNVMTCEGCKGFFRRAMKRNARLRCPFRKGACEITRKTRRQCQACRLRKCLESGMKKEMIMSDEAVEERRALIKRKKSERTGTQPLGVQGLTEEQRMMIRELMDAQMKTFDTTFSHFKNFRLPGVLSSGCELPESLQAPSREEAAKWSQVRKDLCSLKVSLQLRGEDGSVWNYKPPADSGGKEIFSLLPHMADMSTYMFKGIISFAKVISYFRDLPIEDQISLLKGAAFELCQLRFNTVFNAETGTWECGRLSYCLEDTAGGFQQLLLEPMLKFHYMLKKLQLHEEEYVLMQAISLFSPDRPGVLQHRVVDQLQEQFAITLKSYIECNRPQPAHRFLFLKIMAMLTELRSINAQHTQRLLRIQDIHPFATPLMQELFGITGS

Compound: Cc1cc2cc(N/C(=N\C#N)N[C@H]3CCCCN(CC(=O)N4CCC[C@@H]4CN)C3=O)ccc2o1
- EC (Plasma): 27 µM
- IC50 (Coagulation factor X): 22 nM

Compound: Cc1cc2cc(N/C(=N\C#N)N[C@H]3CCCCN(CC(=O)N4CCCC4)C3=O)cc(F)c2o1
- IC50 (Coagulation factor X): 11 nM

Compound: CC(=O)NC[C@@H]1CCCN1C(=O)CN1CCCC[C@H](N/C(=N\C#N)Nc2ccc3oc(C)cc3c2)C1=O
- EC (Plasma): >50 µM
- IC50 (Coagulation factor X): 54 nM

Compound: CC(=O)NC[C@H]1CCCN1C(=O)CN1CCCC[C@H](N/C(=N\C#N)Nc2ccc3oc(C)cc3c2)C1=O
- EC (Plasma): 33 µM
- IC50 (Coagulation factor X): 28 nM

Compound: N#C/N=C(\Nc1ccc2ccccc2c1)N[C@H]1CCCCN(CC(=O)N2CCCC2)C1=O
- IC50 (Coagulation factor X): 780 nM

Compound: Cc1cc2ccc(N/C(=N\C#N)N[C@H]3CCCCN(CC(=O)N4CCCC4)C3=O)cc2o1
- IC50 (Coagulation factor X): > 34000 nM

Compound: CCc1cc2cc(N=C(NC#N)N[C@H]3CCCCN(CC(=O)N4CCCC4)C3=O)ccc2o1
- IC50 (Coagulation factor X): 15500 nM

Compound: Cc1cc2cc(N/C(=N\C#N)N[C@H]3CCCCN(CC(=O)N4CC5CC5C4)C3=O)ccc2o1 (stereo partly drawn)
- EC (Plasma): 56 µM
- IC50 (Coagulation factor X): 15 nM

Compound: Cc1cc2cc(N=C(NC#N)N[C@H]3CCCCN(CC(=O)N4CCCC4)C3=O)cc(C)c2o1
- IC50 (Coagulation factor X): 21 nM

Compound: Cc1cc2cc(N/C(=N\C#N)N[C@H]3CCCCN(CC(=O)N4CCCC4)C3=O)cc(Cl)c2o1
- IC50 (Coagulation factor X): 27 nM

Compound: Cn1cc2cc(N/C(=N\C#N)N[C@H]3CCCCN(CC(=O)N4CCCC4)C3=O)ccc2n1
- IC50 (Coagulation factor X): 2400 nM

Compound: N#C/N=C(\Nc1ccc2oc(C#N)cc2c1)N[C@H]1CCCCN(CC(=O)N2CCCC2)C1=O
- IC50 (Coagulation factor X): 2600 nM

Compound: Cc1cc2cc(N=C(NC#N)N[C@H]3CCCCN(CC(=O)N4CCCC4)C3=O)ccc2s1
- IC50 (Coagulation factor X): 2880 nM

Compound: Cc1cc2cc(N=C(NC#N)N[C@H]3CCCCN(CC(=O)N4CCCC4)C3=O)ccc2[nH]1
- IC50 (Coagulation factor X): > 34000 nM

Compound: Cc1cc2cc(N/C(=N\C#N)N[C@H]3CCCCN(CC(=O)N4CCC(Cc5ccccc5)C4)C3=O)ccc2o1 (stereo partly drawn)
- EC (Plasma): >50 µM
- IC50 (Coagulation factor X): 53 nM

Compound: Cc1cc2cc(N/C(=N\C#N)N[C@H]3CCCCN(CC(=O)N4CCCC4)C3=O)cc(C(F)(F)F)c2o1
- IC50 (Coagulation factor X): 167 nM

Compound: Cc1cc2cc(N=C(NC#N)N[C@H]3CCCCN(CC(=O)N4CCCC4)C3=O)c(F)cc2o1
- IC50 (Coagulation factor X): 76 nM

Compound: Cc1cc2cc(N/C(=N\C#N)N[C@H]3CCN(CC(=O)N4CCCC4)C3=O)ccc2o1
- IC50 (Coagulation factor X): > 32000 nM

Compound: Cc1cc2cc(N=C(NC#N)N[C@H]3CCCCN(CC(=O)N4CCCC4)C3=O)ccc2o1
- IC50 (Cytochrome P450 2C19 [1]): > 40000 nM
- IC50 (Cytochrome P450 3A4 [2]): > 200000 nM
- IC50 (Cytochrome P450 2C8): > 40000 nM
- Vd [3]: 0.19 L/kg
- clearance (Rattus norvegicus): 1.7 mL/min/kg
- half-life [4]: 10.3 h
- bioavailability [5]: 50%
- IC50 (Cytochrome P450 2C19 [6]): > 200000 nM
- IC50 (Cytochrome P450 1A2): > 40000 nM
- MRT [7]: 1.5 h
- Vd [8]: 0.11 L/kg
- bioavailability [9]: 77%
- inhibition (INH) [10]: Not Active
- IC50 (Cytochrome P450 2D6 [11]): > 200000 nM
- inhibition (INH) [12]: Not Active
- inhibition (INH) [13]: Not Active
- clearance (Canis familiaris): 0.12 mL/min/kg
- IC50 (Cytochrome P450 3A4 [14]): 18500 nM
- half-life [15]: 2.4 h
- IC50 (Cytochrome P450 3A4 [16]): > 40000 nM
- IC50 (Cytochrome P450 2C9 [17]): 29200 nM
- IC50 (Cytochrome P450 2D6 [18]): > 40000 nM
- Ki [19]: > 7800 nM
- EC50 [20]: > 25000 nM
- Ki [21]: 3700 nM
- Ki (Prothrombin): 6600 nM
- IC50 (Cytochrome P450 2C9 [22]): > 200000 nM
- Vd [23]: 1.8 L/kg
- inhibition (INH) [24]: Not Active
- IC50 (Cytochrome P450 2B6): > 40000 nM
- clearance (Rhesus monkey): 2.2 mL/min/kg
- bioavailability [25]: 49%
- MRT [26]: 16 h
- MRT [27]: 1.9 h
- Ki [28]: > 18000 nM
- half-life [29]: 2.9 h
- Ki (Plasminogen): > 16000 nM

Compound: Cc1nc2ccc(N=C(NC#N)N[C@H]3CCCCN(CC(=O)N4CCCC4)C3=O)cc2[nH]1
- IC50 (Coagulation factor X): 11900 nM

Compound: N#C/N=C(\Nc1ccc2occc2c1)N[C@H]1CCCCN(CC(=O)N2CCCC2)C1=O
- IC50 (Coagulation factor X): 84 nM

Compound: Cc1cc2cc(N/C(=N\C#N)N[C@H]3CCCCN(CC(=O)N4CCCC4Cc4ccccc4)C3=O)ccc2o1 (stereo partly drawn)
- EC (Plasma): >50 µM
- IC50 (Coagulation factor X): 19 nM

Compound: Cc1cc2ccc(N/C(=N\C#N)N[C@H]3CCCCN(CC(=O)N4CCCC4)C3=O)cc2[nH]1
- IC50 (Coagulation factor X): 1300 nM

Compound: Cc1nc2cc(N/C(=N\C#N)N[C@H]3CCCCN(CC(=O)N4CCCC4)C3=O)ccc2o1
- IC50 (Coagulation factor X): 2680 nM

Compound: Cc1cn2cc(N/C(=N\C#N)N[C@H]3CCCCN(CC(=O)N4CCCC4)C3=O)ccc2n1
- IC50 (Coagulation factor X): > 34000 nM

Compound: Cc1cc2cc(N=C(NC#N)N[C@@H]3CCN(CC(=O)N4CCCC4)C3=O)ccc2o1
- IC50 (Coagulation factor X): 30000 nM

Compound: Cc1cc2cc(N/C(=N\C#N)N[C@H]3CCCCN(CC(=O)N4C5CCC4CNC5)C3=O)ccc2o1
- EC (Plasma): 11.5 µM
- IC50 (Coagulation factor X): 5 nM

Compound: Cc1coc2ccc(N=C(NC#N)N[C@H]3CCCCN(CC(=O)N4CCCC4)C3=O)cc12
- IC50 (Coagulation factor X): 2940 nM

Compound: Cc1nc2ccc(N/C(=N\C#N)N[C@H]3CCCCN(CC(=O)N4CCCC4)C3=O)cc2o1
- IC50 (Coagulation factor X): 18800 nM

Compound: Cc1cc2cc(N/C(=N\C#N)N[C@H]3CCCN(CC(=O)N4CCCC4)C3=O)ccc2o1
- IC50 (Coagulation factor X): 928 nM

Compound: COc1cc(N=C(NC#N)N[C@H]2CCCCN(CC(=O)N3CCCC3)C2=O)cc2cc(C)oc12
- IC50 (Coagulation factor X): 14800 nM

Compound: Cc1cc2c(F)c(N/C(=N\C#N)N[C@H]3CCCCN(CC(=O)N4CCCC4)C3=O)ccc2o1
- IC50 (Coagulation factor X): 2730 nM

Compound: Cc1cc2cc(N/C(=N\C#N)N[C@H]3CCCCN(CC(=O)N4CCC[C@H]4CN)C3=O)ccc2o1
- IC50 (Coagulation factor X): 386 nM

Compound: Cc1cc2cc(N=C(NC#N)NC3CCCCCN(CC(=O)N4CCCC4)C3=O)ccc2o1 (racemic)
- IC50 (Coagulation factor X): 195 nM

Compound: Cc1oc2ccc(N=C(NC#N)N[C@H]3CCCCN(CC(=O)N4CCCC4)C3=O)cc2c1C
- IC50 (Coagulation factor X): 349 nM
